Source: patent US10183938B2, “Geminal substituted quinuclidine amide compounds as agonists of α-7 nicotonic acetylcholine receptors” (AXOVANT SCIENCES GMBH, priority 2014, dated 2019)
Where a name gives a salt, the structure may show the parent alone.

How the values were obtained:
[1] = molecular target: human 5-HT3 serotonin receptors (Homo sapiens (Human), UniProt P46098); assay: [3H]BRL 43694 competition binding; settings: CHO cell membranes, [3H]BRL 43694, Cheng Prusoff; read-out: h-5HT3 Ki
human 5-HT3 serotonin receptors, sequence (P46098 24-478): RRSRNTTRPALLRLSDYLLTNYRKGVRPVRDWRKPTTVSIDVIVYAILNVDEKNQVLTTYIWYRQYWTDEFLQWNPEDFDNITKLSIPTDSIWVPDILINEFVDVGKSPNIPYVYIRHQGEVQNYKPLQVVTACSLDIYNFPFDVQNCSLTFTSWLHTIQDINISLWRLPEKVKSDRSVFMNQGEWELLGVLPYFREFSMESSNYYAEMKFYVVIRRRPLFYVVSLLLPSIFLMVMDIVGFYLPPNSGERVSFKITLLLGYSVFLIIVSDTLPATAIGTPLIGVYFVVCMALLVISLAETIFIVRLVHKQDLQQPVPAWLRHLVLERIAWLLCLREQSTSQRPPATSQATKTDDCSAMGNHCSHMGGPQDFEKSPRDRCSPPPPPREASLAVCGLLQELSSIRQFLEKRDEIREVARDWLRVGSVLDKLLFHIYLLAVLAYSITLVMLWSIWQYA

[2] = molecular target: human α7 nAChRs transiently expressed in Xenopus laevis oocytes (Homo sapiens (Human), UniProt P36544); assay: Oocyte electrophysiology screen (TEVC); type: cell-based; settings: 0.01 mM test compound, peak current relative to 0.2 mM ACh
human α7 nAChRs transiently expressed in Xenopus laevis oocytes, sequence (P36544 23-502 limits assumed): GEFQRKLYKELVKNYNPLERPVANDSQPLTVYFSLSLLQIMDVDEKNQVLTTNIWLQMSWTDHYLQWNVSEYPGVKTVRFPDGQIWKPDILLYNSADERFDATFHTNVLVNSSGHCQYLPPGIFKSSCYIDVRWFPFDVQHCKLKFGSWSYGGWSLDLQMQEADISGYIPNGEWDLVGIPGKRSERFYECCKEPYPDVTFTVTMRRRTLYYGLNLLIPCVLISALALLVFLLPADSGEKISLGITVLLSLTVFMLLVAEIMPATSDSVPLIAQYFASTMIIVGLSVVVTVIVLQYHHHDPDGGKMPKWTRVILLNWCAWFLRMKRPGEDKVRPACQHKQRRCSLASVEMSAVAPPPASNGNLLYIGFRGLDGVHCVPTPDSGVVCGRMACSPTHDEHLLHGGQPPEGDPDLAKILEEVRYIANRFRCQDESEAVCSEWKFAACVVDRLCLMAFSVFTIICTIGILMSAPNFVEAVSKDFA
Summary of the method: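 Oocytes expressing human α7 were clamped at −80 mV by TEVC. After a 0.2 mM ACh control pulse, test compound was applied at 0.01 mM for 30 s. Agonist response is peak current as % of the ACh response, in triplicate.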

SMILES | Ki [1] | % ACh @ 10 μM Oocyte [2]
Cc1cc2cc(C(=O)N[C@@H]3C4CCN(CC4)C34CC4)ccc2o1 [(R)-91, (R)-2-methyl-N-(1′-azaspiro[cyclopropane-1,2′-bicyclo[2.2.2]octan]-3′-yl)benzofuran-5-carboxamide hydrochloride] | > 10000 nM | 653 % ACh
O=C(N[C@@H]1C2CCN(CC2)C12CC2)c1ccc2oc(Cl)cc2c1 [(R)-92, (R)-2-chloro-N-(1′-azaspiro[cyclopropane-1,2′-bicyclo[2.2.2]octan]-3′-yl)benzofuran-5-carboxamide hydrochloride] | > 10000 nM | 532 % ACh
O=C(N[C@@H]1C2CCN(CC2)C12CC2)c1ccc2occ(Cl)c2c1 [(R)-94, (R)-3-chloro-N-(1′-azaspiro[cyclopropane-1,2′-bicyclo[2.2.2]octan]-3′-yl)benzofuran-5-carboxamide hydrochloride] | 1600 nM | 812 % ACh
Cn1cnc2cc(C(=O)N[C@@H]3C4CCN(CC4)C34CC4)ccc21 [(R)-95, (R)-1-methyl-N-(1′-azaspiro[cyclopropane-1,2′-bicyclo[2.2.2]octan]-3′-yl)-1H-benzo[d]imidazole-5-carboxamide hydrochloride] | > 10000 nM | 0 % ACh
O=C(N[C@@H]1C2CCN(CC2)C12CC2)c1cc2ccsc2cn1 [(R)-97, (R)—N-(1′-azaspiro[cyclopropane-1,2′-bicyclo[2.2.2]octan]-3′-yl)thieno[2,3-c]pyridine-5-carboxamide hydrochloride] | 430 nM | 816 % ACh
O=C(N[C@@H]1C2CCN(CC2)C12CC2)c1cc2ccc(N3CCOCC3)cc2s1 [(R)-99, (R)-6-morpholino-N-(1′-azaspiro[cyclopropane-1,2′-bicyclo[2.2.2]octan]-3′-yl)benzo[b]thiophene-2-carboxamide hydrochloride] | > 10000 nM | 1 % ACh
O=C(N[C@@H]1C2CCN(CC2)C12CC2)c1cc2ccc(Br)cc2s1 [(R)-101, (R)-6-bromo-N-(1′-azaspiro[cyclopropane-1,2′-bicyclo[2.2.2]octan]-3′-yl)benzo[b]thiophene-2-carboxamide hydrochloride] | > 10000 nM | 412 % ACh
O=C(N[C@@H]1C2CCN(CC2)C12CC2)c1cc2ccc(C3CCOCC3)cc2s1 [(R)-105, (R)—N-(1′-azaspiro[cyclopropane-1,2′-bicyclo[2.2.2]octan]-3′-yl)-6-(tetrahydro-2H-pyran-4-yl)benzo[b]thiophene-2-carboxamide hydrochloride] | > 10000 nM | 2 % ACh
Cc1ccc2cc(C(=O)N[C@@H]3C4CCN(CC4)C34CC4)sc2c1F [(R)-106, (R)-7-fluoro-6-methyl-N-(1′-azaspiro[cyclopropane-1,2′-bicyclo[2.2.2]octan]-3′-yl)benzo[b]thiophene-2-carboxamide hydrochloride] | > 10000 nM | 572 % ACh
O=C(N[C@@H]1C2CCN(CC2)C12CC2)c1ccc2c(c1)OCCO2 [(R)-107, (R)—N-(1′-azaspiro[cyclopropane-1,2′-bicyclo[2.2.2]octan]-3′-yl)-2,3-dihydrobenzo[b][1,4]dioxine-6-carboxamide hydrochloride] | > 10000 nM | 414 % ACh
CC1(C)[C@H](NC(=O)c2cc3ccc(Cl)c(Cl)c3s2)C2CCN1CC2 [(R)-109, (R)-6,7-dichloro-N-(2,2-dimethylquinuclidin-3-yl)benzo[b]thiophene-2-carboxamide hydrochloride] | 4000 nM | 432 % ACh
CC1(C)[C@H](NC(=O)c2cc3ccc(Cl)c(F)c3s2)C2CCN1CC2 [(R)-110, (R)-6-chloro-N-(2,2-dimethylquinuclidin-3-yl)-7-fluorobenzo[b]thiophene-2-carboxamide hydrochloride] | > 10000 nM | 444 % ACh
CC1(C)[C@H](NC(=O)c2cc3ccc(F)c(Cl)c3s2)C2CCN1CC2 [(R)-114, (R)-7-chloro-N-(2,2-dimethylquinuclidin-3-yl)-6-fluorobenzo[b]thiophene-2-carboxamide hydrochloride] | 620 nM | 703 % ACh
COc1cccc2cc(C(=O)N[C@@H]3C4CCN(CC4)C3(C)C)sc12 [(R)-116, (R)—N-(2,2-dimethylquinuclidin-3-yl)-7-methoxybenzo[b]thiophene-2-carboxamide hydrochloride] | 600 nM | 963 % ACh
O=C(N[C@@H]1C2CCN(CC2)C12CC2)c1cc2ccc(Cl)c(Cl)c2s1 [(R)-150, (R)-6,7-dichloro-N-(1′-azaspiro[cyclopropane-1,2′-bicyclo[2.2.2]octan]-3′-yl)benzo[b]thiophene-2-carboxamide hydrochloride] | 2200 nM | 443 % ACh
O=C(N[C@@H]1C2CCN(CC2)C12CC2)c1cc2ccc(Cl)c(F)c2s1 [(R)-151, (R)-6-chloro-7-fluoro-N-(1′-azaspiro[cyclopropane-1,2′-bicyclo[2.2.2]octan]-3′-yl)benzo[b]thiophene-2-carboxamide hydrochloride] | > 10000 nM | 409 % ACh
COc1ccc2cc(C(=O)N[C@@H]3C4CCN(CC4)C34CC4)sc2c1F [(R)-155, (R)-7-fluoro-6-methoxy-N-(1′-azaspiro[cyclopropane-1,2′-bicyclo[2.2.2]octan]-3′-yl)benzo[b]thiophene-2-carboxamide hydrochloride] | > 10000 nM | 513 % ACh
Cc1ccc2cc(C(=O)N[C@@H]3C4CCN(CC4)C34CC4)sc2c1Cl [(R)-156, (R)-7-chloro-6-methyl-N-(1′-azaspiro[cyclopropane-1,2′-bicyclo[2.2.2]octan]-3′-yl)benzo[b]thiophene-2-carboxamide hydrochloride] | 300 nM | 403 % ACh
O=C(N[C@@H]1C2CCN(CC2)C12CC2)c1cc2ccc(F)c(Cl)c2s1 [(R)-158, (R)-7-chloro-6-fluoro-N-(1′-azaspiro[cyclopropane-1,2′-bicyclo[2.2.2]octan]-3′-yl)benzo[b]thiophene-2-carboxamide hydrochloride] | 370 nM | 180 % ACh
O=C(N[C@@H]1C2CCN(CC2)C12CC2)c1cc2ccc(C3CC3)c(F)c2s1 [(R)-159, (R)-6-cyclopropyl-7-fluoro-N-(1′-azaspiro[cyclopropane-1,2′-bicyclo[2.2.2]octan]-3′-yl)benzo[b]thiophene-2-carboxamide hydrochloride] | > 10000 nM | 24 % ACh
COc1cccc2cc(C(=O)N[C@@H]3C4CCN(CC4)C34CC4)sc12 [(R)-161, (R)-7-methoxy-N-(1′-azaspiro[cyclopropane-1,2′-bicyclo[2.2.2]octan]-3′-yl)benzo[b]thiophene-2-carboxamide hydrochloride] | 660 nM | 493 % ACh
O=C(N[C@@H]1C2CCN(CC2)C12CC2)c1cc2ccc(Cl)cc2o1 [(R)-163, (R)-6-chloro-N-(1′-azaspiro[cyclopropane-1,2′-bicyclo[2.2.2]octan]-3′-yl)benzofuran-2-carboxamide hydrochloride] | 2000 nM | 446 % ACh
